# Source: patent US9717792B2, “Combination therapy for cancer using HSP27 inhibitor and EGFR tyrosine kinase inhibitors or anti-folates” (The University Of British Columbia, priority 2012, dated 2017)
# Key:
# [1] = target: PKC-dependent phosphorylation of Hsp27 (Homo sapiens, UniProt P04792); conditions: cited from earlier work
# Hsp27 OE A549 cells = assay: Hsp27-overexpressing A549 cells: western blotting and flow cytometry after Erlotinib; type: cell-based, human
# Description: The cell viability was determined by crystal violet assay.
# The cells undergoing apoptosis (subG0/G1 fraction) were quantified using flow cytometry. FIGS. 4B and C.
# (§1) Cleaved PARP, p-EGFR(Tyr1068), EGFR, p-Hsp27(Ser82), Hsp27, and Beta-actin were assayed.
# A549 lung cancer cells = assay: Western blot of protein levels in A549 cells; type: cell-based, human
# Description: Western blots: To perform Westerns, cell lysates were prepared under non-denaturing conditions. Briefly, the cell lysates were to immunoprecipition, and subsequently immunoblotted using antibody and visualized via electrophoresis and autoradiogram.
# 48 and 72 hours of exposure.
# Protein expression was analyzed by western blotting. […] Flow cytometry was used to quantify the percentage of cells in each cell cycle phase.
# as §1
# Western gels were run on cell protein prepared under standard non-denaturing conditions, and relative levels of p-Hsp27(Ser82), Hsp27, cleaved PARP, and beta-actin were detected using commercial antibodies from Cell Signalling (Danvers, USA). Protein levels from zero to 48 hours for a 1 microMolar pemetrexed exposure were measured.
# 72 h later, cell viability was determined by crystal violet assay. […] Protein levels were also determined in these cells by immunoblotting.
# Hsp27 mRNA = Hsp27 mRNA expression by quantitative RT-PCR in A549 cells; conditions: 5 or 10 μM Erlotinib for 24 or 48 hours; normalized to GAPDH mRNA
# Description: Hsp27 mRNA expression was analyzed by quantitative RT-PCR. Hsp27 mRNA levels were normalized to levels of GAPDH mRNA. Bars, SD. ** and *, differ from control (P<0.01 and P<0.05, respectively).
# HCC827 cells = assay: Western blot of protein levels in HCC827 parental cells; type: cell-based, human; conditions: erlotinib 2.5 nanomolar; vs non-treated cells
# Description: Levels of p-EGFR(Tyr1068), EGFR, Hsp27, Cleaved PARP, Cleaved and whole Caspase-3, and beta-actin (cell protein control) were detected.
# [2] = A549 OE, erlotinib 0 to 20 micromolar, 72 hours
# [3] = A549, erlotinib 0 to 20 micromolar, 72 hours
# Sequence of PKC-dependent phosphorylation of Hsp27 (P04792 whole entry): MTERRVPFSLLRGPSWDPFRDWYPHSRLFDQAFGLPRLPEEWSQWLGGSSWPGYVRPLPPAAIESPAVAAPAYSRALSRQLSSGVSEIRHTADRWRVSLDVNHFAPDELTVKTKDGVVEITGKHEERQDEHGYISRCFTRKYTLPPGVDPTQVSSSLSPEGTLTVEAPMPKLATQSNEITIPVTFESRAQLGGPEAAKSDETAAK
smiles,measurement,setting,value
"CCc1cc(-c2oncc2-c2ccc(OC)cc2)c(O)cc1OC [KRIBB3, 5-(5-Ethyl-2-hydroxy-4-methoxyphenyl)-4-(4-methoxyphenyl)isoxazole]",IC50,[1],50 nM
"C#Cc1cccc(Nc2ncnc3cc(OCCOC)c(OCCOC)cc23)c1 [Erlotinib, erlotinib]",Cleaved PARP (Western),Hsp27 OE A549 cells; [2],increased
same,p-EGFR(Tyr1068) (Western),Hsp27 OE A549 cells; [2],decrease
same,p-Hsp27(Ser82) (Western),Hsp27 OE A549 cells; [2],dose-dependent increase
same,apoptotic rate in cells with Hsp27 overexpression,"Hsp27 OE A549 cells; Hsp27 OE A549 vs Empty A549, varying levels of erlotinib",decreased apoptotic rate
same,"amounts of EGFR, Hsp27 and p-Hsp27 (Western Blot)","A549 lung cancer cells; 10 μM Erlotinib, 1, 6, 24, 48 and 72 hours",Increasing amounts
same,cleaved PARP (Western Blot),"A549 lung cancer cells; 10 μM Erlotinib, 1 to 72 hours",observed at all times following 24 hours of treatment
same,p-EGFR (Tyr 1068) (Western Blot),"A549 lung cancer cells; 10 μM Erlotinib, 1 to 72 hours",not observed following treatment
same,"p-Hsp27, Hsp27, p-EGFR, EGFR, cleaved PARP (Western Blot), repeat","A549 lung cancer cells; 48 hours, erlotinib 2.5, 5 and 10 μM",Qualitatively similar results
same,Cleaved PARP (Western),A549 lung cancer cells; [3],increased
same,p-EGFR(Tyr1068) (Western),A549 lung cancer cells; [3],decrease
same,Hsp27 mRNA expression,Hsp27 mRNA,increased Hsp27 expression
same,p-EGFR (Tyr068) (Western),HCC827 cells,decrease
same,"protein levels of P-Hsp27(ser82), Hsp27 (Western)",HCC827 cells,increased
Nc1nc2[nH]cc(CCc3ccc(C(=O)N[C@@H](CCC(=O)O)C(=O)O)cc3)c2c(=O)[nH]1 [pemetrexed],pHsp27 and cleaved PARP signals (Western),"A549 lung cancer cells; pemetrexed 0, 0.25, 0.5, 1.0 microMoles, zero to 48 hours",increase with dose and are greatest at 48 hours
